This passage reports EC50 results from PubChem BioAssay AID652002 (Sanford-Burnham Center for Chemical Genomics, 2013).

Structures are written as SMILES. Calls of active or inactive are those of the source. How the calls were made is not given here.

Test [1] has as its target NB7+Caspase-8. Kind of test: compound enhancement of TRAIL-induced cell killing – NB7 cells plus caspase-8, luminescence, panel, dose response (AID 652002). Conditions: NB7 neuroblastoma +caspase-8, TRAIL sensitization, luminescence viability, with TRAIL.
Experiment in test [2]: as above
Conditions: NB7 neuroblastoma +caspase-8, no TRAIL, compound-alone cytotoxicity counter-screen, luminescence viability, NB7+Caspase-8. (In general: The purpose of a counterscreen is to sort out artefacts and off-target activity.)

In test [3] the target is Tumor necrosis factor receptor superfamily member 10B (Homo sapiens) (UniProt O14763). Described as above. The following applies: NB7 neuroblastoma +caspase-8, TRAIL sensitization, luminescence viability; NB7+Caspase-8; with TRAIL, mean of runs.
Sequence of Tumor necrosis factor receptor superfamily member 10B (Homo sapiens) (O14763 whole entry, looked up): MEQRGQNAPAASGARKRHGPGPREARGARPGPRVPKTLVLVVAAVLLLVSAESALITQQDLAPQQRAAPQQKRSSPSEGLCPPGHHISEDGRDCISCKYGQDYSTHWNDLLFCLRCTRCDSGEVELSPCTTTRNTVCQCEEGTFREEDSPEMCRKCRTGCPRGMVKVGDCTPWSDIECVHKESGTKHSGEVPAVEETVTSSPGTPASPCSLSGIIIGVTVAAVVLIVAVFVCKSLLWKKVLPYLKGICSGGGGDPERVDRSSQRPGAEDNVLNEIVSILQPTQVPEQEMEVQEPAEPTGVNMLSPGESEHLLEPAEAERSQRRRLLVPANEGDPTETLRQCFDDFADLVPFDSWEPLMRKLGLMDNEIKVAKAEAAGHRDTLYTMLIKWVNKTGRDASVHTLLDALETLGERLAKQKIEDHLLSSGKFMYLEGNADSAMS
Setting [4] is: run 1, single replicate panel EC50.
The mark [5] stands for this setting: run 2, single replicate panel EC50.

One may read the EC50 as the concentration at which the effect is half-maximal. For the compound `Cn1c(=O)c2c(SCC(=O)Nc3ccccc3F)nc(C3CC3)nc2n(C)c1=O`, the EC50 in test [1] (setting [4]) was > 12.5 µM; in test [1] (setting [5]), > 12.5 µM; in test [2] (mean of runs) it was > 12.5 µM (inactive); in test [2] (setting [4]) it was > 12.5 µM; in test [2] (setting [5]) it was > 12.5 µM; in test [3] it was > 12.5 µM (inactive).
In the case of `Cc1ccc(N=C/C(C(=O)C(F)(F)F)=C(\O)c2cccs2)cc1`, the EC50 in test [1] (setting [4]) is 6.11 µM; in test [1] (setting [5]) it was 4 µM; in test [2] (setting [4]) it was > 12.5 µM; in test [2] (setting [5]), 1.87 µM. Moreover, the EC50 result in test [2] (mean of runs) and in test [3] was “inactive” each time.
Regarding `CCOc1ccc2nc(NC(=O)c3cccc(-c4cc5ccccc5oc4=O)c3)sc2c1`, the EC50 was > 12.5 µM in test [1] (setting [4]); > 12.5 µM in test [1] (setting [5]); > 12.5 µM (inactive) in test [2] (mean of runs); > 12.5 µM in test [2] (setting [4]); > 12.5 µM in test [2] (setting [5]); > 12.5 µM (inactive) in test [3].
`COc1cccc(NC(=O)c2ccc3c(c2)OCO3)c1`: the EC50 in test [1] (setting [4]) stood at 7.39 µM; in test [1] (setting [5]), 11 µM; in test [2] (setting [4]), 8.96 µM; in test [2] (setting [5]) it was 11.9 µM. Moreover, the EC50 entry in test [2] (mean of runs) and in test [3] was “inactive” in each case.
With `CC(C)(C)OC(=O)NCc1ccc(NC(=O)c2nc[nH]c2C(=O)N[C@@H](Cc2ccccc2)C(=O)OCc2ccccc2)cc1`, the EC50 in test [1] (setting [4]) was > 12.5 µM; in test [1] (setting [5]), > 12.5 µM; in test [2] (mean of runs), > 12.5 µM (inactive); in test [2] (setting [4]), > 12.5 µM; in test [2] (setting [5]), > 12.5 µM; in test [3] it was > 12.5 µM (inactive).
As for `O=Nc1ccc(NO)c2ccccc12`, the EC50 in test [1] (setting [4]) is > 12.5 µM; in test [1] (setting [5]), 6.54 µM; in test [2] (mean of runs) it was > 12.5 µM (inactive); in test [2] (setting [4]), > 12.5 µM; in test [2] (setting [5]) it was > 12.5 µM. In test [3], the EC50 result is “inactive”.
On to `O=C(Nc1ccc2ccccc2c1)c1ccc(Cl)cc1`, for which the half-maximal effective concentration (EC50) in test [1] (setting [4]) is > 12.5 µM; in test [1] (setting [5]), > 12.5 µM; in test [2] (mean of runs), > 12.5 µM (inactive); in test [2] (setting [4]), > 12.5 µM; in test [2] (setting [5]), > 12.5 µM; in test [3] it was > 12.5 µM (inactive).
On to `O=C(NC1=NCCS1)c1cc2ccccc2o1`, for which the EC50 in test [1] (setting [4]) was 5.35 µM; in test [1] (setting [5]), 10.4 µM; in test [2] (setting [4]), > 12.5 µM; in test [2] (setting [5]), 4.22 µM. Also, the EC50 entry in test [2] (mean of runs) and in test [3] was “inactive” each time.
`CCC(C)c1ccc(O)c(NC(=S)NC(=O)c2cccs2)c1` (stereo not given): the concentration for a half-maximal effect (EC50) was > 12.5 µM in test [1] (setting [4]), 7.09 µM in test [1] (setting [5]), 5.97 µM in test [2] (setting [4]) and 8.18 µM in test [2] (setting [5]). Further, the EC50 entry in test [2] (mean of runs) and in test [3] was “inactive” throughout.
`C#CC(=O)CC1(CN(Cc2ccccc2)C(=O)OC(C)(C)C)CCCCC1`: the EC50 in test [1] (setting [4]) turned out to be 3.12 µM; in test [1] (setting [5]), 7.51 µM; in test [2] (setting [4]), 7.26 µM; in test [2] (setting [5]), 1.52 µM. Besides, the EC50 result in test [2] (mean of runs) and in test [3] was “inactive” in each case.
`CCCC1(CCC)C(=O)NC(=NCc2ccccc2)NC1=O`: the concentration giving a half-maximal response (EC50) in test [1] (setting [4]) was > 12.5 µM; in test [1] (setting [5]), > 12.5 µM; in test [2] (mean of runs), > 12.5 µM (inactive); in test [2] (setting [4]) it was > 12.5 µM; in test [2] (setting [5]), > 12.5 µM; in test [3] it was > 12.5 µM (inactive).
As to `COc1cc(SC#N)ccc1N=Cc1c(C)[nH]n(-c2ccc(Cl)cc2)c1=O`, the EC50 is > 12.5 µM in test [1] (setting [4]); > 12.5 µM in test [1] (setting [5]); > 12.5 µM (inactive) in test [2] (mean of runs); > 12.5 µM in test [2] (setting [4]); > 12.5 µM in test [2] (setting [5]); > 12.5 µM (inactive) in test [3].
As to `O=C(Oc1c(CN2CCOCC2)cc(Cl)c2cccnc12)c1cccs1`, the EC50 is > 12.5 µM in test [1] (setting [4]); 6.75 µM in test [1] (setting [5]); > 12.5 µM (inactive) in test [2] (mean of runs); > 12.5 µM in test [2] (setting [4]); > 12.5 µM in test [2] (setting [5]). Further, the EC50 result in test [3] was “inactive”.
Regarding `Cc1nn(-c2ccccc2)c2nc(N)c(C#N)c(-c3ccc(F)cc3)c12`, the EC50 was > 12.5 µM in test [1] (setting [4]); > 12.5 µM in test [1] (setting [5]); > 12.5 µM in test [2] (setting [4]); 11.5 µM in test [2] (setting [5]); > 12.5 µM (inactive) in test [3]. For the same compound, the EC50 result in test [2] (mean of runs) is “inactive”.
In the case of `CCCCc1nc(NCCN)c(C#N)c2c1CSC(C)(C)C2`, the EC50 in test [1] (setting [4]) was > 12.5 µM; in test [1] (setting [5]) it was > 12.5 µM; in test [2] (mean of runs) it was > 12.5 µM (inactive); in test [2] (setting [4]), > 12.5 µM; in test [2] (setting [5]), > 12.5 µM; in test [3], > 12.5 µM (inactive).
